# Laboratory results taken from patent US10517844B2, “Inhibition of proline catabolism for the treatment of cancer and other therapeutic applications” (Buck Institute for Research on Aging, priority 2014, dated 2019).
# Entries after “also recorded” stand apart in the source; their conditions may differ.
# How the values were obtained:
# PRODH [1] = target: T1, PRODH (Homo sapiens, UniProt O43272); experiment: NADH-generating mitochondrial PRODH bioassay; type: biochemical
# T1 construct: Mitochondria freshly isolated from PPG pretreated (15 h) and washed (30 min) ZR-75-1 cells; endogenous in cells; host or cells: mitochondria isolated from ZR-75-1 human breast cancer cells
# T1 sequence (O43272 1-600): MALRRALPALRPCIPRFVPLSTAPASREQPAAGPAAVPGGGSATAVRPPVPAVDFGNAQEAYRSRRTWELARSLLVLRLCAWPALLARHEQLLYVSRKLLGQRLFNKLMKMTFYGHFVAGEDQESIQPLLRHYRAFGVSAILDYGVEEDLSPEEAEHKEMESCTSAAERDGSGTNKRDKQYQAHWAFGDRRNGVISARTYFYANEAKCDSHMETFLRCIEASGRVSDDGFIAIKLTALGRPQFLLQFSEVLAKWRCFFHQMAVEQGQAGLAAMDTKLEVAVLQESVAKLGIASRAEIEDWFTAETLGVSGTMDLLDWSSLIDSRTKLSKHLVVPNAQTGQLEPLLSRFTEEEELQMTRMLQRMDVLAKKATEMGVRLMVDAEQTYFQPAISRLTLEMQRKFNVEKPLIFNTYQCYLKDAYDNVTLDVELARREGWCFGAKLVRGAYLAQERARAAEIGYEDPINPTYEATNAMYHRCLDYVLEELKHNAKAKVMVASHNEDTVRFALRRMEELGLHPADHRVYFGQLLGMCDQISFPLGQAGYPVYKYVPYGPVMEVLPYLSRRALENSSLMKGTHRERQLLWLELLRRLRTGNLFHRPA
# Excerpt: Mitochondrial PRODH bioassays capable of measuring inhibitor activity are described in Goncalves et al. (2014) Redox Biol. 2: 901-909 (which is hereby incorporated by reference herein for this description). These include, inter alia: i) spectrophotometric detection of OAB reacted with proline generated P5C, ii) dual wavelength spectrophotometric detection (A566-A575) of endogenous cytochrome b566 reduction that occurs directly upon mitochondrial PRODH oxidation of proline, and iii) fluorescence spectrometry detection (lex 340 nm, lem 460 nm) of mitochondrial NADH levels as a function of substrate and inhibitor treatment. See details in Example below. The mitochondrial PRODH assay is described therein detects mitochondrial NADH production resulting downstream from PRODH production of P5C and then glutamate, while controlling for other sources of mitochondrial NADH production.
# We have optimized our mitochondrial preparation technique and developed three different mitochondrial PRODH bioassays capable of measuring inhibitor activity which are now reported (Goncalves et al. (2014) Redox Biol. 2: 901-909); these include: i) spectrophotometric detection of OAB reacted with proline generated P5C, ii) dual wavelength spectrophotometric detection (A566-A575) of endogenous cytochrome b566 reduction that occurs directly upon mitochondrial PRODH oxidation of proline, and iii) fluorescence spectrometry detection (lex 340 nm, lem 460 nm) of mitochondrial NADH levels as a function of substrate and inhibitor treatment.
# Briefly, in an exemplary protocol, cells are harvested from 2 to 4500 cm^2 dishes at 90% confluence, washed three times in ice-cold STE (250 mM sucrose, 5 mM Tris-HCl, 2 mM EGTA, pH7.4), scraped off, suspended in 50 ml STE and centrifuged for 10 min at 500 g. The pellet is resuspended in STE supplemented with 1% (w/v) fatty acid-free bovine serum albumin and homogenized (up to 20 strokes). The suspension is brought to 50 ml and centrifuged for 5 min at 1000 g. The supernatant is centrifuged for 10 min at 11,000 g. The pellet is resuspended in STE and centrifuged for 10 min at 10,000 g. The mitochondrial pellet is resuspended in STE and kept on ice. Protein is determined by Bradford assay(Biorad).
# NAD(P)H is measured using 0.3 mg mitochondrial protein/ml at 37° C. in KHEPMB (KHE containing 5 mM K2HPO4, 2 mM MgCl2, 0.3% (w/v) fatty acid-free bovine serum albumin) plus 1 mM ADP and 2.5 μg/ml oligomycin. The reduction state of endogenous NAD(P)H Is determined by autofluorescence using the Pherastar microplate reader at λexcitation=340 nm, λemission=460 nm. NAD(P)H was assumed to be 0% reduced after 5 min without added substrate, then rotenone was added. The 100% reduced level was established with saturating substrate (e.g., 5 mM malate, glutamate and proline) and 4 μM rotenone. Intermediate values were determined as % reduced NAD(P)H relative to the 0% and 100% values.
# For screening purposes, the NADH fluorescence bioassay can be routinely used as it is the most sensitive and amenable to higher throughput.
# BT474 = experiment: Growth inhibition, drug combination; type: cell-based, human; conditions: for Growth inhibiting interaction with CB-839: 72 h
# MCF7 = experiment: Growth inhibition / cell viability, drug combination; type: cell-based, human; conditions: for Growth inhibiting interaction with CB-839: 72 h; for Cell viability, interaction with CB-839: MCF7, single dose, 48 h
# DU4475 = experiment: as above; type: cell-based, human; conditions: for Growth inhibiting interaction with CB-839: 72 h
# ZR75-1 = experiment: Growth inhibition, drug combination; type: cell-based, human; conditions: for Growth inhibiting interaction with CB-839: 72 h
# MCF10A cells = experiment: Cell viability, non-malignant cells; type: cell-based, human
# [2] = system: multiple breast cancer cell lines; experiment: Growth inhibition in combination with CB-839; type: cell-based, human
# breast cancer models = experiment: Interaction of PRODH inhibitors with p53 wt restoration; type: cell-based, human; conditions: various breast cancer models
# Excerpt: Our recent studies have shown that p53 wt restoration by the MDM2 inhibitor MI-63 triggers early and very different mitochondrial bioenergetic and global metabolic pool changes between malignant (e.g., MCF7, ZR-75-1, ZR-75-30, DU4475) and non-malignant (e.g., MCF-10A) mammary epithelial systems (Yau et al. (2011) Amer. Assoc. Cancer Res. 52: a3797, 2011; Yau et al. (2012) Amer. Assoc. Cancer Res. 53: a5160). Having first observed that PRODH siRNA knockdown promotes apoptosis in p53 wt breast cancer cells, we then evaluated PRODH knockdown in combination with MI-63 induced p53 restoration. […] Knockdown of P5CDH (the next enzymatic step in proline catabolism) produced a similar but less pronounced pro-apoptotic response in combination with MI-63, convincing us that PRODH is the most appropriate therapeutic target for synthetic lethality. […] Equally relevant, since PRODH provides a bypass source of mitochondrial glutamate for glutamine-addicted (e.g., GLS1 overexpressing) cancers, particularly those most sensitive to clinically emergent GLS1 inhibitors like CB-839 (Katt and Cerione (2014) Drug Discov. Today, 19: 450-457; Gross et al. (2014) Mol. Cancer Ther. 13: 890-901), our new data also supports the fact that PRODH inhibition induces a synthetic lethal anticancer response in combination with GLS1 inhibition among our various breast cancer models.
# [3] = system: DU4475 breast cancer cells; experiment: Apoptosis by cleaved PARP Western blot; type: cell-based, human; conditions: DU4475, combined with MI-63
# PRODH [4] = conditions: cited from earlier work
# [5] = system: malignant breast epithelial cells; experiment: Protein levels after p53 restoration by MI-63; type: cell-based, human
# Excerpt: New cancer treatments based on the restoration or reactivation of p53 wt function were first envisioned over a decade ago, and multiple pharmacological strategies have since emerged from preclinical studies that now show great clinical promise (12-17), particularly against malignancies like breast cancers in which 75% of all newly diagnosed cases express wildtype p53 (TCGA Network (2012). Nature 490: 61-70). […] Likewise, p53 induced metabolic changes linking proline metabolism to the urea cycle (OAT) and to glutaminolysis (GLS2) and the TCA cycle have been observed in our model systems (Yau et al. (2012) Amer. Assoc. Cancer Res. 53: a5160).
# ZR-75-1 = experiment: Protein degradation in treated culture (Western blot); type: cell-based, human
# PRODH [6] = experiment: Dietary PPG in adult Drosophila, Sluggish-A phenotype; type: in vivo; conditions: dietary 5 mM x 48 h
# Drosophila = Drosophila lifespan after dietary PPG during oogenesis; type: in vivo; conditions: dietary 5 mM x 24 h during oogenesis, 2nd day collected eggs, 70 days
# Experimental: Female Drosophila were starved for 4 h, then combined with males on liquid 5% sucrose food with or without 5 mM PPG. After 24 h, females were transferred to egg collection containers, and eggs collected after 1, 2, and 3 days. Collected eggs were transferred to bottles of regular food, separately for each collection day. Larvae developed normally, were transferred to vials after eclosion; vials were exchanged thrice weekly throughout life.
# [7] = ZR-75-1 cells pretreated 15 h, washed 30 min
compound,measurement,setting,value
C#CC(C)NCC(=O)O (racemic) [(R/S)-PPG],PRODH inhibiting activity,PRODH [1]; mitochondrial PRODH assay,retains PRODH inhibiting activity
"O=C1CC[C@@H](C(=O)O)O1 [Compound 5-oxo, (S)-(+)-5-oxo-2-tetrahydrofurancarboxylic acid]",S versus R isomers in mitochondrial PRODH bioassay,PRODH [1],stereospecificity of S-5-oxo
same,PRODH enzymatic inhibition after washout,PRODH [1]; same washout (30 min),completely lost (reversed); also recorded: completely lost by washout
same,Treatment interaction,"BT474; BT474, 5-oxo (1 μM) + CB839 (1 μM)",Additive
same,Growth inhibiting interaction with CB-839,"BT474; BT474, +5-oxo (5 mM)",Additive
same,Treatment interaction,"MCF7; MCF7, 5-oxo (1 μM) + CB839 (1 μM)",Synergistic
same,Growth inhibiting interaction with CB-839,"MCF7; MCF7, +5-oxo (5 mM)",Synergistic
same,"Cell viability, interaction with CB-839",MCF7,additive interactions
same,Treatment interaction,"DU4475; DU4475, 5-oxo (1 μM) + CB839 (1 μM)",Synergistic
same,Growth inhibiting interaction with CB-839,"DU4475; DU4475, +5-oxo (5 mM)",Synergistic
same,Treatment interaction,"ZR75-1; ZR75-1, 5-oxo (1 μM) + CB839 (1 μM)",Synergistic
same,Growth inhibiting interaction with CB-839,"ZR75-1; ZR75-1, +5-oxo (5 mM)",Synergistic
same,Cell viability / growth inhibition in non-malignant cells,MCF10A cells; combined with CB-839,no treatment effects
same,Cell viability / growth inhibition in non-malignant cells,"MCF10A cells; combined with CB-839, listed as S-5-oxo",lack of any growth inhibition
same,Growth inhibition in combination with CB-839,[2]; within 48 h,additive growth inhibition
same,Growth inhibition in combination with CB-839,[2]; within 72 h,synergistic growth inhibition
same,Interaction with p53 wt restoration,breast cancer models,synthetic lethal interactions
"O=C(O)[C@@H]1CCCO1 [L-THFA, L-tetrahydro-2-furoic acid]",Viable cell growth in culture,"DU4475; DU4475, combined with MI-63",synthetic lethality effectiveness; also recorded: synergistically reduces viable cell growth
same,Apoptosis (c PARP production) over MI-63 treatment alone,[3],~4 fold
same,Interaction with p53 wt restoration,breast cancer models,synthetic lethal interactions
same,Ki,PRODH [4],300 µM
CC(C)(C)C[C@H]1N[C@@H](C(=O)NCCN2CCOCC2)[C@H](c2cccc(Cl)c2F)[C@@]12C(=O)Nc1cc(Cl)ccc12 [MI-63],Induction of PRODH protein levels,[5],≥ 5 fold
same,P5C reductase (PYCR1) levels,[5],coordinate decrease
same,P5CDH protein level,[5],no change
"COc1ccc(C2=N[C@@H](c3ccc(Cl)cc3)[C@@H](c3ccc(Cl)cc3)N2C(=O)N2CCNC(=O)C2)c(OC(C)C)c1 [Nutlin-3a, reference compound]",Growth inhibiting interaction with CB-839,"BT474; BT474, +Nutlin-3a (5 μM)",No interaction
same,Growth inhibiting interaction with CB-839,"MCF7; MCF7, +Nutlin-3a (5 μM)",Additive
same,Growth inhibiting interaction with CB-839,"DU4475; DU4475, +Nutlin-3a (5 μM)",Synergistic
same,Growth inhibiting interaction with CB-839,"ZR75-1; ZR75-1, +Nutlin-3a (5 μM)",Additive
"C#CCNCC(=O)O [PPG, N-propargylglycine]",PRODH enzymatic inhibition compared at equimolar inhibitor concentration,PRODH [1]; 2 mM,significantly greater PRODH enzymatic inhibition over S-5-oxo
same,Malate metabolism (NADH formation) by isolated mitochondria,PRODH [1]; [7],not affected; also recorded: fully capable of metabolizing malate
same,Proline metabolism (NADH formation) by isolated mitochondria,PRODH [1]; [7],remain unable to metabolize proline; also recorded: remained completely unable to metabolize proline
same,"Cell viability, interaction with CB-839",MCF7,additive interactions
same,Cell viability / growth inhibition in non-malignant cells,MCF10A cells; combined with CB-839,no treatment effects; also recorded: lack of any growth inhibition
same,Growth inhibition in combination with CB-839,[2]; within 48 h,additive growth inhibition
same,Growth inhibition in combination with CB-839,[2]; within 72 h,synergistic growth inhibition
same,Time of exposure to PRODH protein degradation,ZR-75-1,≤ 24 h
same,Cytoplasmic FAD containing protein MTHFR decline,"ZR-75-1; ZR-75-1, 24-72 h",does not
same,Mitochondrial complex-1 protein NDUFS1 level,"ZR-75-1; ZR-75-1, 24-72 h",also declines
same,Degradation of PRODH protein,"ZR-75-1; ZR-75-1 culture treatment, within 24-72 h",30-60%
same,Fly viability,PRODH [6],without loss of fly viability
same,PRODH inhibition in vivo (Sluggish-A phenotype),PRODH [6],completely inhibits PRODH in vivo
same,Median and maximum lifespan,Drosophila,significantly extends median and maximum lifespan
same,Interaction with p53 wt restoration,breast cancer models,synthetic lethal interactions
